Patent US10036011B2, “Scavenger compounds for improved sequencing-by-synthesis” (QIAGEN Waltham, Inc., priority 2016, dated 2018)
“Also recorded” adds a separate entry of the source. One block for each molecule: values may come before it.

Tests used:
[1] = Carnitine and acetylcarnitine solubility and stability in Cleave reagent; type: physicochemical; settings: for solubility into Cleave reagent: 10 mM, 25 mM and 50 mM; for stability against discoloration and precipitation: cleave reagent formulations, storage at room temperature; for solubility in cleave reagent formulations: over a range of concentrations; for stability of solutions (discoloration or precipitate): room temperature (RT), a few hours of storage
Experimental: L-carnitine and O-acetyl-carnitine were tested for solubility and stability in cleave reagent formulations similarly to IPA. […] See, Example V.
This example tests carnitine-based compounds for solubility into Cleave reagent. Various concentrations (10 mM, 25 mM and 50 mM) of carnitine and acetylcarnitine were tested for solubility and stability.

[2] = IPA solubility and stability in Cleave 1 solution / Cleave Reagent formulations (concentration curve); type: physicochemical; settings: for Color / Precipitate / Solubility / pH: Cleave 1 solution
Experimental: IPA was initially tested for solubility and stability in Cleave Reagent formulations. […] IPA was then tested by sequencing in a head-to-head comparison with the reference cleaving reagent, gallic acid, to provide a performance benchmark. IPA was implemented into a sequencing workflow as a standalone powder component to the cleave reagent. See, Example IV.
This example tests alternative formulations and chemistry for a cleave mix including TCEP as a standard reducing agent and IPA as a radical oxygen scavenger. The goal is to test both solubility and the ease of implementation into a kit configuration.
Formation of solid components directly within a Cleave 1 solution using an IPA concentration curve (10 mM, 25 mM and 50 mM) was assessed by measuring solubility, color, precipitate observation and pH level.

Structure (SMILES): CC(=O)O[C@H](CC(=O)[O-])C[N+](C)(C)C [O-acetyl-carnitine, O-acetyl-L-carnitine]
solubility into Cleave reagent [1]: very soluble
stability against discoloration and precipitation [1]: stable against discoloration and precipitation
solubility in cleave reagent formulations [1]: highly soluble
stability of solutions (discoloration or precipitate) [1]: no discoloration or precipitate were observed

solubility into Cleave reagent [1]: very soluble
solubility in cleave reagent formulations [1]: highly soluble
Structure (SMILES): C[N+](C)(C)C[C@H](O)CC(=O)[O-] [L-carnitine]
stability against discoloration and precipitation [1]: stable against discoloration and precipitation
stability of solutions (discoloration or precipitate) [1]: no discoloration or precipitate were observed

Color ([2]; 10 mM/2-8 C.°, 0 hours): No color; also recorded: Transparent
Precipitate ([2]; 10 mM/2-8 C.°, 0 hours): None
Solubility ([2]; 10 mM/2-8 C.°, 0 hours): Excellent
pH ([2]; 10 mM/2-8 C.°, 0 hours): 12.81
Color ([2]; 10 mM/2-8 C.°, 8 hours): Transparent; also recorded: No color
Precipitate ([2]; 10 mM/2-8 C.°, 8 hours): None
Solubility ([2]; 10 mM/2-8 C.°, 8 hours): Excellent
pH ([2]; 10 mM/2-8 C.°, 8 hours): 12.80
Color ([2]; 10 mM/2-8 C.°, 48 hours): Transparent; also recorded: No color
Precipitate ([2]; 10 mM/2-8 C.°, 48 hours): None
Solubility ([2]; 10 mM/2-8 C.°, 48 hours): Excellent
pH ([2]; 10 mM/2-8 C.°, 48 hours): 12.83
Color ([2]; 10 mM/RT, 0 hours): Transparent; also recorded: No color
Precipitate ([2]; 10 mM/RT, 0 hours): None
Solubility ([2]; 10 mM/RT, 0 hours): Excellent
pH ([2]; 10 mM/RT, 0 hours): 12.88
Color ([2]; 10 mM/RT, 8 hours): Transparent; also recorded: No color
Precipitate ([2]; 10 mM/RT, 8 hours): None
Solubility ([2]; 10 mM/RT, 8 hours): Excellent
pH ([2]; 10 mM/RT, 8 hours): 12.83
Color ([2]; 10 mM/RT, 48 hours): Transparent; also recorded: No color
Precipitate ([2]; 10 mM/RT, 48 hours): None
Solubility ([2]; 10 mM/RT, 48 hours): Excellent
pH ([2]; 10 mM/RT, 48 hours): 12.79
Precipitate ([2]; 25 mM RT, 0 hours): None
Solubility ([2]; 25 mM RT, 0 hours): Excellent
pH ([2]; 25 mM RT, 0 hours): 12.78
Precipitate ([2]; 25 mM/2-8 C.°, 0 hours): None
Solubility ([2]; 25 mM/2-8 C.°, 0 hours): Excellent
pH ([2]; 25 mM/2-8 C.°, 0 hours): 12.75
Precipitate ([2]; 25 mM/2-8 C.°, 8 hours): None
Solubility ([2]; 25 mM/2-8 C.°, 8 hours): Excellent
pH ([2]; 25 mM/2-8 C.°, 8 hours): 12.71
Precipitate ([2]; 25 mM/2-8 C.°, 48 hours): None
Solubility ([2]; 25 mM/2-8 C.°, 48 hours): Excellent
pH ([2]; 25 mM/2-8 C.°, 48 hours): 12.76
Precipitate ([2]; 25 mM/RT, 8 hours): None
Solubility ([2]; 25 mM/RT, 8 hours): Excellent
pH ([2]; 25 mM/RT, 8 hours): 12.67
Precipitate ([2]; 25 mM/RT, 48 hours): None
Solubility ([2]; 25 mM/RT, 48 hours): Excellent
pH ([2]; 25 mM/RT, 48 hours): 12.71
Color ([2]; 50 mM/2-8 C.°, 0 hours): Transparent; also recorded: Pale yellow
Precipitate ([2]; 50 mM/2-8 C.°, 0 hours): None
Solubility ([2]; 50 mM/2-8 C.°, 0 hours): Excellent
pH ([2]; 50 mM/2-8 C.°, 0 hours): 12.67
Precipitate ([2]; 50 mM/2-8 C.°, 8 hours): None
Solubility ([2]; 50 mM/2-8 C.°, 8 hours): Excellent
pH ([2]; 50 mM/2-8 C.°, 8 hours): 12.61
Precipitate ([2]; 50 mM/2-8 C.°, 48 hours): None
Solubility ([2]; 50 mM/2-8 C.°, 48 hours): Excellent
pH ([2]; 50 mM/2-8 C.°, 48 hours): 12.64
Precipitate ([2]; 50 mM/RT, 0 hours): None
Solubility ([2]; 50 mM/RT, 0 hours): Excellent
pH ([2]; 50 mM/RT, 0 hours): 12.61
Precipitate ([2]; 50 mM/RT, 8 hours): None
Solubility ([2]; 50 mM/RT, 8 hours): Excellent
pH ([2]; 50 mM/RT, 8 hours): 12.69
Precipitate ([2]; 50 mM/RT, 48 hours): None
Solubility ([2]; 50 mM/RT, 48 hours): Excellent
pH ([2]; 50 mM/RT, 48 hours): 12.72
stability (lack of discoloration and/or formation of precipitate) ([2]; aqueous solution at pH ~12): relative stability
solubility in cleave reagent formulations ([2]; over a range of concentrations): highly soluble
solubility in aqueous solution ([2]; pH ~12): highly soluble
Structure (SMILES): O=C(O)CCc1c[nH]c2ccccc12 [IPA, indole-3-propionic acid]
stability against discoloration and precipitation ([2]; Cleave Reagent formulations, prolonged storage at room temperature): stable against discoloration and precipitation
